# Several values for one entry are separate records, joined by “and”; a condition that tells them apart may be missing. Equal entries are not always repeated.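 Each compound was tested at five concentrations against cells in 96-well plates for 48 hours. GI50 marks 50% less growth. TGI: total growth inhibition.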
# Assays:
# Assay in all cases: DTP human tumour cell line panel, 48 h
# NCI-H23 lung = test system: NCI-H23 lung
# M14 melanoma = test system: M14 melanoma
# SF-539 CNS = test system: SF-539 CNS
# HT29 colon = test system: HT29 colon
# OVCAR-5 ovarian = test system: OVCAR-5 ovarian
# OVCAR-4 ovarian = test system: OVCAR-4 ovarian
# OVCAR-3 ovarian = test system: OVCAR-3 ovarian
# U251 CNS = test system: U251 CNS
# HOP-92 NSCLC = test system: HOP-92 NSCLC
# SR leukemia = test system: SR leukemia
compound,measurement,setting,value
O=c1sc(-c2nc3ccccc3[nH]2)c(/N=C/c2ccccc2)n1-c1ccccc1,TGI,NCI-H23 lung,> 100 µM
same,TGI,M14 melanoma,> 100 µM
same,TGI,SF-539 CNS,> 100 µM
same,TGI,HT29 colon,> 100 µM
same,TGI,OVCAR-5 ovarian,> 100 µM
same,TGI,OVCAR-4 ovarian,26.7 µM
same,TGI,OVCAR-3 ovarian,65.6 µM
same,TGI,U251 CNS,> 100 µM
Cn1cc(-c2ccc3nnc(C(F)(F)c4ccc5ncccc5c4)n3n2)cn1,GI50,NCI-H23 lung,66 µM
same,TGI,NCI-H23 lung,> 100 µM
same,GI50,M14 melanoma,> 100 µM
same,TGI,M14 melanoma,> 100 µM
same,GI50,SF-539 CNS,47.5 µM
same,TGI,SF-539 CNS,> 100 µM
same,GI50,HT29 colon,63.6 µM
same,TGI,HT29 colon,> 100 µM
same,GI50,OVCAR-5 ovarian,71.9 µM
same,TGI,OVCAR-5 ovarian,> 100 µM
same,GI50,HOP-92 NSCLC,10.6 µM
same,TGI,HOP-92 NSCLC,> 88.9 µM
same,GI50,OVCAR-4 ovarian,38.5 µM
same,TGI,OVCAR-4 ovarian,> 100 µM
same,GI50,OVCAR-3 ovarian,80.5 µM
same,TGI,OVCAR-3 ovarian,> 100 µM
same,GI50,U251 CNS,58.4 µM
same,TGI,U251 CNS,> 100 µM
C=C1CCC2(C(C)=O)COC1(C)O2 (configuration not stated),TGI,NCI-H23 lung,> 10 µM
same,TGI,M14 melanoma,> 100 µM
same,TGI,SF-539 CNS,> 100 µM
same,TGI,HT29 colon,> 100 µM
same,TGI,OVCAR-3 ovarian,> 100 µM
same,TGI,U251 CNS,> 100 µM
CCOC(=O)CP(=S)(S)c1ccccc1 (configuration not stated),TGI,NCI-H23 lung,> 100 µM
same,TGI,SF-539 CNS,> 100 µM
same,TGI,HT29 colon,> 100 µM
same,TGI,OVCAR-5 ovarian,> 100 µM
same,TGI,HOP-92 NSCLC,> 100 µM
same,TGI,OVCAR-4 ovarian,> 100 µM
same,TGI,SR leukemia,> 100 µM
same,TGI,U251 CNS,> 100 µM
COC1C(C)OC(OC2CC(C)(O)Cc3cc4c(c(O)c32)C(=O)c2c(O)cc3c(c2C4=O)OC2OC3(C)C(O)C(N(C)C)C2O)C(OC)C1(C)OC (configuration not stated),GI50,NCI-H23 lung,0.0395 µM and 0.0216 µM
same,GI50,M14 melanoma,0.141 µM
same,GI50,SF-539 CNS,0.038 µM and 0.0171 µM
same,GI50,HT29 colon,0.00453 µM and 0.0379 µM
same,GI50,HOP-92 NSCLC,0.00296 µM and 0.0156 µM
same,TGI,OVCAR-4 ovarian,1.61 µM
same,GI50,SR leukemia,0.0114 µM
same,GI50,OVCAR-3 ovarian,0.104 µM and 0.0376 µM
same,GI50,U251 CNS,0.0459 µM and 0.016 µM
COc1cc2oc(-c3ccc(O)cc3)cc(=O)c2c(OC)c1O,TGI,NCI-H23 lung,> 100 µM
same,TGI,M14 melanoma,> 100 µM
same,TGI,SF-539 CNS,> 100 µM
same,TGI,HT29 colon,> 100 µM
same,TGI,OVCAR-5 ovarian,> 100 µM
same,TGI,HOP-92 NSCLC,> 100 µM
same,TGI,OVCAR-4 ovarian,> 100 µM
same,TGI,OVCAR-3 ovarian,> 100 µM
same,TGI,U251 CNS,> 100 µM
CCOC(=O)Cn1c(=O)[nH]c(=O)c2[nH]cnc21,TGI,NCI-H23 lung,> 100 µM
same,TGI,M14 melanoma,> 100 µM
same,TGI,SF-539 CNS,> 100 µM
same,TGI,HT29 colon,> 100 µM
same,TGI,OVCAR-5 ovarian,> 100 µM
same,TGI,OVCAR-4 ovarian,> 100 µM
same,TGI,SR leukemia,> 100 µM
same,TGI,OVCAR-3 ovarian,> 100 µM
same,TGI,U251 CNS,> 100 µM
CCOC(=O)Nc1cc(-c2ccc(C)c(NS(C)(=O)=O)c2)nn2c(C)nnc12,GI50,NCI-H23 lung,1.93 µM
same,TGI,NCI-H23 lung,9.16 µM
same,GI50,M14 melanoma,2.1 µM
same,TGI,M14 melanoma,> 100 µM
same,GI50,SF-539 CNS,1.86 µM
same,TGI,SF-539 CNS,> 100 µM
same,GI50,HT29 colon,0.809 µM
same,TGI,HT29 colon,14.1 µM
same,GI50,OVCAR-5 ovarian,2.64 µM
same,TGI,OVCAR-5 ovarian,31.3 µM
same,GI50,OVCAR-4 ovarian,0.735 µM
same,TGI,OVCAR-4 ovarian,10.9 µM
same,GI50,SR leukemia,0.643 µM
same,TGI,SR leukemia,> 100 µM
same,GI50,OVCAR-3 ovarian,1.36 µM
same,TGI,OVCAR-3 ovarian,6.56 µM
CSCC(COC(C)=O)(CSC)c1ccncc1,TGI,NCI-H23 lung,> 100 µM
same,TGI,M14 melanoma,> 100 µM
same,TGI,SF-539 CNS,> 100 µM
same,TGI,HT29 colon,> 100 µM
same,TGI,OVCAR-4 ovarian,> 100 µM
same,TGI,SR leukemia,> 100 µM
same,TGI,OVCAR-3 ovarian,> 100 µM
same,TGI,U251 CNS,> 100 µM
Cc1nc(-n2nc(-c3ccccc3)cc2-c2ccccc2)sc1C(/C=C/c1ccc([N+](=O)[O-])cc1)=N/NC(N)=S,TGI,NCI-H23 lung,> 100 µM
same,TGI,M14 melanoma,> 100 µM
same,TGI,SF-539 CNS,> 100 µM
same,TGI,HT29 colon,> 100 µM
same,TGI,OVCAR-5 ovarian,> 100 µM
same,TGI,HOP-92 NSCLC,> 100 µM
same,TGI,OVCAR-3 ovarian,> 100 µM
same,TGI,U251 CNS,> 100 µM
O=C(CC1(O)C(=O)Nc2ccc([N+](=O)[O-])cc21)c1ccc(Br)cc1 (configuration not stated),TGI,NCI-H23 lung,> 100 µM
same,TGI,M14 melanoma,> 100 µM
same,TGI,SF-539 CNS,> 100 µM
same,TGI,HT29 colon,> 100 µM
same,TGI,OVCAR-5 ovarian,> 100 µM
same,TGI,OVCAR-4 ovarian,> 100 µM
same,TGI,OVCAR-3 ovarian,> 100 µM
same,TGI,U251 CNS,51 µM
O=C(NCCCl)NCc1ccccc1,TGI,NCI-H23 lung,> 100 µM
same,TGI,HT29 colon,> 100 µM
same,TGI,OVCAR-5 ovarian,> 100 µM
same,TGI,HOP-92 NSCLC,> 100 µM
same,TGI,OVCAR-4 ovarian,> 100 µM
same,TGI,SR leukemia,> 100 µM
same,TGI,OVCAR-3 ovarian,> 100 µM
same,TGI,U251 CNS,> 100 µM
c1cnc2nc3n(c2c1)CSC3,TGI,NCI-H23 lung,> 100 µM
same,TGI,M14 melanoma,> 100 µM
same,TGI,SF-539 CNS,> 100 µM
same,TGI,HT29 colon,> 100 µM
same,TGI,OVCAR-5 ovarian,> 100 µM
same,TGI,HOP-92 NSCLC,> 100 µM
same,TGI,OVCAR-4 ovarian,> 100 µM
same,TGI,OVCAR-3 ovarian,> 100 µM
same,TGI,U251 CNS,> 100 µM
Cc1cc(C)c(C(=O)/C(=C/c2ccccc2)c2ccccc2)c(C)c1,TGI,NCI-H23 lung,> 100 µM
same,TGI,M14 melanoma,> 100 µM
same,TGI,SF-539 CNS,> 100 µM
same,TGI,HT29 colon,> 100 µM
same,TGI,HOP-92 NSCLC,> 100 µM
same,TGI,OVCAR-4 ovarian,> 100 µM
same,TGI,SR leukemia,> 100 µM
same,TGI,OVCAR-3 ovarian,> 100 µM
same,TGI,U251 CNS,> 100 µM
CCN(CC)CCNC(=O)C(Cl)=C1C(Cl)=C(Cl)C(Cl)=C1Cl,GI50,NCI-H23 lung,5.44 µM
same,TGI,NCI-H23 lung,26.5 µM
same,GI50,SF-539 CNS,4.33 µM
same,TGI,SF-539 CNS,53.1 µM
same,GI50,HT29 colon,3.49 µM
same,TGI,HT29 colon,12.2 µM
same,GI50,OVCAR-5 ovarian,4.82 µM
same,TGI,OVCAR-5 ovarian,27.8 µM
same,GI50,HOP-92 NSCLC,2.37 µM
same,TGI,HOP-92 NSCLC,8.62 µM
same,GI50,OVCAR-4 ovarian,4.17 µM
same,TGI,OVCAR-4 ovarian,15.6 µM
same,GI50,SR leukemia,3.36 µM
same,TGI,SR leukemia,> 100 µM
same,GI50,OVCAR-3 ovarian,2.45 µM
same,TGI,OVCAR-3 ovarian,7.45 µM
same,GI50,U251 CNS,2.85 µM
same,TGI,U251 CNS,10.2 µM
COc1ccc2c(c1)CC1N(C)CCC13CCCCC23 (configuration not stated),TGI,NCI-H23 lung,> 100 µM
same,TGI,M14 melanoma,> 100 µM
same,TGI,HT29 colon,> 100 µM
same,TGI,OVCAR-5 ovarian,> 100 µM
same,TGI,HOP-92 NSCLC,> 100 µM
same,TGI,OVCAR-4 ovarian,> 100 µM
same,TGI,SR leukemia,> 100 µM
same,TGI,OVCAR-3 ovarian,> 100 µM
same,TGI,U251 CNS,> 100 µM
CC(C)OC(=O)c1cccnc1/C=N/O,TGI,NCI-H23 lung,> 100 µM
same,TGI,M14 melanoma,> 100 µM
same,TGI,SF-539 CNS,> 100 µM
same,TGI,HT29 colon,> 100 µM
same,TGI,OVCAR-5 ovarian,> 100 µM
same,TGI,OVCAR-3 ovarian,> 100 µM
same,TGI,U251 CNS,> 100 µM
COc1cc([C@@H]2c3cc4c(cc3[C@@H](NC(=O)c3ccc(OC(C)=O)cc3)C3COC(=O)[C@@H]32)OCO4)cc(OC)c1O (some centres not stated),TGI,NCI-H23 lung,3.31 µM
same,TGI,M14 melanoma,9.22 µM
same,TGI,SF-539 CNS,3.14 µM
same,TGI,HT29 colon,29.5 µM
same,TGI,OVCAR-5 ovarian,22.4 µM
same,TGI,HOP-92 NSCLC,7.05 µM
same,TGI,OVCAR-4 ovarian,> 100 µM
same,TGI,OVCAR-3 ovarian,22.3 µM
same,TGI,U251 CNS,2.75 µM
COc1cc(OC)c(/C=C/C(=O)c2c(O)cc(OC)c(C3CCN(C)CC3)c2OC)c(OC)c1,GI50,NCI-H23 lung,1.41 µM
same,TGI,NCI-H23 lung,2.78 µM
same,GI50,M14 melanoma,1.67 µM
same,TGI,M14 melanoma,3.05 µM
same,GI50,SF-539 CNS,1.69 µM
same,TGI,SF-539 CNS,3.12 µM
same,GI50,HT29 colon,0.421 µM
same,TGI,HT29 colon,1.5 µM
same,GI50,OVCAR-5 ovarian,1.48 µM
same,TGI,OVCAR-5 ovarian,2.84 µM
same,GI50,OVCAR-4 ovarian,1.4 µM
same,TGI,OVCAR-4 ovarian,3 µM
same,GI50,OVCAR-3 ovarian,1.81 µM
same,TGI,OVCAR-3 ovarian,3.32 µM
same,GI50,U251 CNS,1.27 µM
same,TGI,U251 CNS,2.52 µM
O=C(O)c1ccccc1C1c2ccc(Cl)cc2Oc2cc(Cl)ccc21,TGI,NCI-H23 lung,> 100 µM
same,TGI,M14 melanoma,> 100 µM
same,TGI,SF-539 CNS,> 100 µM
same,TGI,HT29 colon,> 100 µM
same,TGI,OVCAR-5 ovarian,> 100 µM
same,TGI,HOP-92 NSCLC,> 100 µM
same,TGI,OVCAR-4 ovarian,> 100 µM
same,TGI,OVCAR-3 ovarian,> 100 µM
same,TGI,U251 CNS,> 100 µM
Cn1c2c(c3ccccc31)CCN(CCCN1CCN(c3ccccc3)CC1)C2=O,TGI,NCI-H23 lung,46.8 µM
same,TGI,M14 melanoma,37 µM
same,TGI,SF-539 CNS,31.7 µM
same,TGI,HT29 colon,26.7 µM
same,TGI,HOP-92 NSCLC,31.7 µM
same,TGI,U251 CNS,30.2 µM
